The subject of test [1] is Saccharomyces cerevisiae wild type strain BY4743. Description: AF1 yeast metabolite analysis by GC-MS and LC-MS after antifungal drug treatment. Note: test concentration or dose not given here. It is filed as cell-based.
Test [2] has as its system Arabidopsis thaliana. Description: SOA1 phenotypic analysis of herbicide-treated Arabidopsis (MIC, Tmic, leaf traits). It is filed as in vivo. The conditions noted are these: for characteristic morphological symptoms: SOA1, in words; for tMic (Dev.): coded score of time to full range of symptoms at MIC; for leafCurling (Dev.) / leafTwisting (Dev.) / leafWidth (Dev.) / matureLeafAnthocyanins (Dev.) / matureLeafChlorosis (Dev.) / matureLeafNecrosis (Dev.) / newLeafAnthocyanins (Dev.) / newLeafChlorosis (Dev.) / newLeafNecrosis (Dev.) / pointedLeaves (Dev.): numeric value standardized to mock treated.

The test system of test [3] is Arabidopsis thaliana. In words: MOA1 gene expression profiling (22,000 gene arrays) of sprayed Arabidopsis. Conditions: for number of gene expression perturbations compared to the other treatments: 1 hr; for No. of Lethal Genes Altered: regulated genes at 1 hr compared with internal list of essential genes.
The subject of test [4] is Arabidopsis thaliana. Description: MOA1 biochemical (metabolite) profiling by LC-MS and GC-MS of sprayed Arabidopsis. Conditions: MOA1, 20 min and 1 hour after spraying.
In test [5] the test system is Arabidopsis. Conditions: nitrate addition to N-starved plants; cited from earlier work.

Molecules are shown by their SMILES.

`OC(Cn1cncn1)(Cn1cncn1)c1ccc(F)cc1F` [Fluconazole]: the “Fold Change” value is 0 in test [1] (4-aminobenzoic acid, pLC); 0 in test [1] (4-methylcatechol, nLC); 0 in test [1] (4-methylcatechol, pLC); 0 in test [1] (5hydroxyLtryptophan, nLC); 0 in test [1] (6-benzylaminopurine, nLC); 0 in test [1] (6benzylaminopurine, pLC). Moreover, the “Fold Change” value in test [1] (DL-aminoadipic acid, pLC) is reported as 0.1155; in test [1] (DLaminoadipic acid, nLC), 0.443; in test [1] (abscisic acid, nLC) it was 0; in test [1] (abscisic acid, pLC) it was 0; in test [1] (adenine, nLC), 0; in test [1] (adenosine, nLC), 0. Besides, the “Fold Change” value in test [1] (allantoic acid, pLC) came out at 0; in test [1] (anthranilic acid, nLC), 0; in test [1] (anthranilic acid, pLC) it was 0; in test [1] (arginine, nLC), 0.6484; in test [1] (arginine, pLC) it was 0.1179; in test [1] (argininosuccinate, nLC) it was 0. For the same compound, the “Fold Change” value in test [1] (argininosuccinate, pLC) was determined as 0; in test [1] (asparagine, GC), 0.3999; in test [1] (asparagine, nLC), 0.3545; in test [1] (asparagine, pLC), 0.3192; in test [1] (aspartic acid, GC) it was 0.4337; in test [1] (aspartic acid, pLC), 0.214. For the same compound, the “Fold Change” value in test [1] (aspartic, nLC) is listed as 0.4993; in test [1] (benzoic acid, nLC), 0; in test [1] (biotin, nLC), 0.3455; in test [1] (biotin, pLC), 0; in test [1] (caffeic acid, nLC), −0.4711; in test [1] (caffeine, pLC), 0. The “Fold Change” value was 0 in test [1] (campesterol, GC); 0 in test [1] (catechol, nLC); 0 in test [1] (cinnamic acid, nLC); 0 in test [1] (citric acid TME, pLC); 0 in test [1] (citricanoic/itaconi, nLC); 0 in test [1] (citrulline, nLC). Also, the “Fold Change” value in test [1] (citrulline, pLC) was 0.08252; in test [1] (coumaric acid, nLC), 0; in test [1] (cytidine, nLC) it was −0.7969; in test [1] (cytidine, pLC), 0; in test [1] (cytosine, nLC), 0; in test [1] (cytosine, pLC), 0. For the same compound, the “Fold Change” value stood at 0.1846 in test [1] (decanoic acid, nLC); 0 in test [1] (desmosterol, GC); 0 in test [1] (diaminopimelic acid, nLC); 0 in test [1] (diaminopimelic acid, pLC); 0 in test [1] (dihydrofolic acid, nLC); 0 in test [1] (dihydrofolic acid, pLC). Also, the “Fold Change” value in test [1] (dipicolinic acid, pLC) is 0; in test [1] (disaccaride1, GC) it was 0.3883; in test [1] (disaccaride2, GC), 0.1517; in test [1] (disaccaride3, GC), 0.5803; in test [1] (ergosterol, GC), 0.948; in test [1] (estrone, nLC), 0. The “Fold Change” value in test [1] (farnesol, nLC) came to 0; in test [1] (folic acid, nLC), 0; in test [1] (folic acid, pLC), 0; in test [1] (fucosterol, GC), 6.665; in test [1] (fumaric/3m2oxobutan, nLC) it was 0.6009; in test [1] (gallic acid, nLC), 0.5071. The “Fold Change” value in test [1] (gibberellic, nLC) was 0; in test [1] (glucosamine6PO4, nLC) it was −0.9951; in test [1] (glucosamine6PO4, pLC), 0; in test [1] (glucosamine, pLC), 0; in test [1] (glutamate, pLC) it was −0.06179; in test [1] (glutamic/acetylseri, nLC) it was 0.3842. The “Fold Change” value in test [1] (glutamine, GC) is 0.5242; in test [1] (glutamine/lysine, nLC) it was 0.3309; in test [1] (glutamine/lysine, pLC), 0.2242; in test [1] (glutathione, pLC), −0.05832; in test [1] (glycanopyrose, GC), 1.202; in test [1] (glycerol, GC), 0.2187. The “Fold Change” value in test [1] (glycine, GC) is −0.1037; in test [1] (guanine, nLC) it was 0; in test [1] (guanosine, nLC), −0.993; in test [1] (guanosine, pLC) it was −0.9981; in test [1] (hexadecanoic acid, GC) it was 0.1343; in test [1] (histidine, nLC), 0. Also, the “Fold Change” value turned out to be 0 in test [1] (histidine, pLC); 0 in test [1] (homogentisic/uric, nLC); 0 in test [1] (hydrocortisone, nLC); 0 in test [1] (hydrocortisone, pLC); 0.7757 in test [1] (hypoxanthine, nLC); 0.1298 in test [1] (hypoxanthine, pLC). In addition, the “Fold Change” value in test [1] (indole3pyruvic acid, nLC) is on record as 0; in test [1] (inostol/glucos/sorb, nLC) it was −0.4744; in test [1] (iso citric acid, GC), 0.3923; in test [1] (isocitric/citric/qu, nLC), 1.457; in test [1] (isoleucine, GC), 0.391; in test [1] (itaconic acid dimes, pLC), 0. For the same compound, the “Fold Change” value in test [1] (jasmonic acid, nLC) is 0; in test [1] (kinetin, nLC) it was 0; in test [1] (kinetin, pLC), 0; in test [1] (lactic acid, nLC), −0.0439; in test [1] (lanosterol, GC) it was 8.462; in test [1] (lauric acid, nLC), 0.3906. In test [1] (leucine, GC), the “Fold Change” value amounted to 0.3387.

As for `COC(=O)c1cc(Oc2ccc(Cl)cc2Cl)ccc1[N+](=O)[O-]` [Bifenox], in test [2], the characteristic morphological symptoms result is on record as “Necrotic leaf flecks”.

Take `CN(C)C(=O)Nc1ccc(Cl)c(Cl)c1` [Diuron]: the characteristic morphological symptoms entry in test [2] is “rapid and widespread leaf necrosis”. Further, the “tMic (Dev.)” value in test [2] (SOA1) is given as 1.

In the case of `O=C(O)c1ccccc1C(=O)Nc1cccc2ccccc12` [Naptalam], in test [3], the “number of gene expression perturbations compared to the other treatments” value is “fewest gene expression perturbations” and the “No. of Lethal Genes Altered” value turned out to be 3.

Turning to `C[n+]1ccc(-c2cc[n+](C)cc2)cc1` [Paraquat], the characteristic morphological symptoms entry in test [2] was “rapid and widespread leaf necrosis”. In addition, in test [2] (SOA1), the “tMic (Dev.)” value stood at 2, the “leafCurling (Dev.)” value was found to be 2, the “leafTwisting (Dev.)” value is reported as 0 and the “leafWidth (Dev.)” value is listed as −1. Besides, in test [2] (SOA1), the “matureLeafAnthocyanins (Dev.)” value is on record as 0, the “matureLeafChlorosis (Dev.)” value is given as 1, the “matureLeafNecrosis (Dev.)” value came out at 4 and the “newLeafAnthocyanins (Dev.)” value was determined as 0. In test [2] (SOA1), the “newLeafChlorosis (Dev.)” value worked out at 1, the “newLeafNecrosis (Dev.)” value was found to be 4 and the “pointedLeaves (Dev.)” value was 1.

For `CCNc1nc(Cl)nc(NC(C)C)n1` [Atrazine], the characteristic morphological symptoms entry in test [2] is “rapid and widespread leaf necrosis”.

For the compound `COC(=O)NS(=O)(=O)c1ccc(N)cc1` [Asulam], in test [3], the “number of gene expression perturbations compared to the other treatments” value is “fewest gene expression perturbations” and the “No. of Lethal Genes Altered” value stood at 5.

Consider `CCc1cnc(C2=NC(C)(C(C)C)C(=O)N2)c(C(=O)O)c1` (centres unmarked) [Imazethapyr], for which the characteristic morphological symptoms entry in test [2] is “anthocyanin accumulation in the older leaves accompanied by chlorosis of the newly emerging leaves”.

For the compound `CSc1nnc(C(C)(C)C)c(=O)n1N` [Metribuzin], the characteristic morphological symptoms result in test [2] is “rapid and widespread leaf necrosis”.

Regarding `OC(Cn1cncn1)(Cn1cncn1)c1ccc(F)cc1F` [Fiuconazole], the “Fold Change” value in test [1] (5hydroxyLtryptophan, pLC) is on record as 0; in test [1] (adenosine, pLC) it was 0.

Consider `CC(C)N1C(=O)c2ccccc2NS1(=O)=O` [Bentazon], for which, in test [2], the characteristic morphological symptoms entry was “rapid and widespread leaf necrosis”.

`CNc1cnn(-c2cccc(C(F)(F)F)c2)c(=O)c1Cl` [Norflurazon]: the “stress-related (commonly regulated) metabolites” value in test [4] is recorded as “Only a few, if any”.

As for `CC(C)C1(C)N=C(c2ncccc2C(=O)O)NC1=O` (centres unmarked) [Imazapyr], the “stress-related (commonly regulated) metabolites” value in test [4] was “Only a few, if any”. The characteristic morphological symptoms result in test [2] is “anthocyanin accumulation in the older leaves accompanied by chlorosis of the newly emerging leaves”.

`O=C(O)c1cc(Oc2ccc(C(F)(F)F)cc2Cl)ccc1[N+](=O)[O-]` [Acifluorfen]: in test [2], the characteristic morphological symptoms entry is reported as “Necrotic leaf flecks”.

For `O=C(O)COc1ccc(Cl)cc1Cl` [2,4-D], in test [2] (SOA1), the “tMic (Dev.)” value came out at 2, the “leafCurling (Dev.)” value was found to be 1, the “leafTwisting (Dev.)” value turned out to be 2 and the “leafWidth (Dev.)” value is reported as −1. Further, in test [2] (SOA1), the “matureLeafAnthocyanins (Dev.)” value worked out at 1, the “matureLeafChlorosis (Dev.)” value is given as 2, the “matureLeafNecrosis (Dev.)” value is given as 0 and the “newLeafAnthocyanins (Dev.)” value stood at 0. In test [2] (SOA1), the “newLeafChlorosis (Dev.)” value is 1, the “newLeafNecrosis (Dev.)” value came to 0 and the “pointedLeaves (Dev.)” value was found to be 0. Moreover, the “Symtom Class” value in test [2] (SOA1, three-week-old plants sprayed with herbicide, classes pictured in FIG. 12) is on record as 5.

For `c1cc[n+]2c(c1)-c1cccc[n+]1CC2` [Diquat], in test [2], the characteristic morphological symptoms entry is “rapid and widespread leaf necrosis”. Besides, in test [2] (SOA1), the “tMic (Dev.)” value worked out at 2.

Consider `O=[N+]([O-])O` [Nitrate, nitrate], for which, in test [5], the “Nitrate Regulation of Glutamate synthetase” value is “↑”, the “Nitrate Regulation of Glutamine synthetase (2)” value is given as “↑”, the “Nitrate Regulation of MADs Box (2)” value is recorded as “↓” and the “Nitrate Regulation of MYB transcription factor” value is given as “↑”. Besides, in test [5], the “Nitrate Regulation of Malate Dehydrogenase” value is recorded as “↑”, the “Nitrate Regulation of Nitrate transporter” value was “↑”, the “Nitrate Regulation of Phosphate transporter” value is given as “↑” and the “Nitrate Regulation of Transaldolase” value is recorded as “↑”. Besides, the “Nitrate Regulation of Transketolase” value in test [5] is on record as “↑”.

(Values after patent US20040024543A1, “Methods and systems for analyzing complex biological systems” (priority 2001, published 2004).)
